One compound from publication PMC6020753 (Chemical Science, 2016) can be followed below.

This test has as its target T1, NP1 (Rhodnius prolixus, UniProt Q26239).
T1 construct: recombinant in E. coli BL21(DE3), reconstituted ferriheme b protein, two Cys-Cys disulfides
The experiment in a line: X-band EPR of nitrite complex. Format: binding. The conditions noted are these: 300 mM NaNO2, 100 mM HEPES pH 7.2, 25% glycerol, 10 K; heme iron ligand.

T1 sequence (Q26239 24-207): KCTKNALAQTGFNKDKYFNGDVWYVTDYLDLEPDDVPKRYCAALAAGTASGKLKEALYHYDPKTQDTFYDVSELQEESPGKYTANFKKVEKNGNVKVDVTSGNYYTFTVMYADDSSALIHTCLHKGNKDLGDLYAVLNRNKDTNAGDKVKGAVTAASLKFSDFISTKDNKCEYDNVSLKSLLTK

`O=NO` [nitrite]: the “X-band EPR of nitrite complex” value was “NP1[NO2^–] also has a HALS signal with a similar ratio”.
